Each compound was assayed on saphenous artery rings (assay: Vasorelaxant effect in vitro (phenylephrine-contracted artery rings)). Conditions: Oryctolagus cuniculus, rabbit saphenous artery rings, contraction induced by phenylephrine.
Assay type: cell-based, Rabbits
Description: B-1. Vasorelaxant Effect In Vitro:
Rabbits are anaesthetized and sacrificed by intravenous injection of thiopental sodium (about 50 mg/kg) and exsanguinated. The saphenous artery is removed and divided into rings 3 mm wide. The rings are mounted singly on in each case a pair of triangular hooks open at the end and made of 0.3 mm-thick special wire (Remanium®). Each ring is placed under an initial tension in 5 ml organ baths with Krebs-Henseleit solution which is at 37° C., is gassed with 95% O2/5% CO2 and has the following composition: NaCl 119 mM; KCl 4.8 mM; CaCl2×2H2O 1 mM; MgSO4×7H2O 1.4 mM; KH2PO4 1.2 mM; NaHCO3 25 mM; glucose 10 mM; bovine serum albumin 0.001%. The force of contraction is detected with Statham UC2 cells, amplified and digitized via A/D converters (DAS-1802 HC, Keithley Instruments, Munich) and recorded in parallel on chart recorders. Contractions are induced by addition of phenylephrine.
After several (generally 4) control cycles, the substance to be investigated is added in each further run in increasing dosage, and the height of the contraction achieved under the influence of the test substance is compared with the height of the contraction reached in the last preceding run. The concentration necessary to reduce the contraction reached in the preceding control by 50% is calculated from this (IC50). The standard application volume is 5 μl. The proportion of DMSO in the bath solution corresponds to 0.1%.

SMILES	IC50
O=C(O)c1ccc(CCC(/C=C/c2ccccc2OCCCC(F)(F)F)Cc2ccc(C(=O)O)cc2)cc1 (racemic) [Example 11, 4-{(4E)-3-(4-Carboxybenzyl)-5-[2-(4,4,4-trifluorobutoxy)phenyl]pent-4-en-1-yl}benzoic Acid]	129 nM
O=C(O)c1ccc(CCC(/C=C/c2cc(F)ccc2OCc2ccc(C(F)(F)F)cc2)Cc2ccc(C(=O)O)cc2)cc1 (single isomer, unassigned) [Example 54, 4-[(4E)-3-(4-Carboxybenzyl)-5-(5-fluoro-2-{[4-(trifluoromethyl)benzyl]oxy}phenyl)pent-4-en-1-yl]benzoic Acid]	90 nM
O=C(O)c1ccc(CCC(C=Cc2ccccc2OCc2ccc(-c3ccc(C(F)(F)F)cc3)cc2)Cc2ccc(C(=O)O)cc2)cc1 (stereo not shown) [Example 10, 4-[(4E/Z)-3-(4-Carboxybenzyl)-5-(2-{[4′-(trifluoromethyl)biphenyl-4-yl]methoxy}phenyl)pent-4-en-1-yl]benzoic Acid]	48 nM
O=C(O)c1ccc(CCC(/C=C/c2ccccc2OCc2ccc(C(F)(C(F)(F)F)C(F)(F)F)cc2)Cc2ccc(C(=O)O)cc2)cc1 (stereo not shown) [Example 44, 4-{(4E)-3-(4-Carboxybenzyl)-5-[2-({4-[1,2,2,2-tetrafluoro-1-(trifluoromethyl)ethyl]benzyl}oxy)-phenyl]pent-4-en-1-yl}benzoic Acid]	22 nM
O=C(O)c1ccc(CCC(/C=C/c2ccccc2OCc2cc(C(F)(F)F)cc(C(F)(F)F)c2)Cc2ccc(C(=O)O)cc2)cc1 (stereo not shown) [Example 48]	4 nM
O=C(O)c1ccc(CCC(/C=C/c2ccccc2OC(F)(F)c2ccc(C(F)(F)F)cc2)Cc2ccc(C(=O)O)cc2)cc1 (stereo not shown) [Example 50]	370 nM
O=C(O)c1ccc(CCC(/C=C/c2cc(F)ccc2OCc2ccc(C(F)(F)F)cc2)Cc2ccc(C(=O)O)cc2)cc1 (stereo not shown) [Example 55]	287 nM
O=C(O)c1ccc(CCC(/C=C/c2cc(F)ccc2OCc2ccc(OC(F)(F)F)cc2)Cc2ccc(C(=O)O)cc2)cc1 (stereo not shown) [Example 56]	77 nM

Now from value to compound:

IC50	SMILES
21 nM	O=C(O)c1ccc(CCC(/C=C/c2ccccc2OCc2ccc(CCc3ccccc3)cc2)Cc2ccc(C(=O)O)cc2)cc1 (racemic) [Example 7, 4-[(4E)-3-(4-Carboxybenzyl)-5-(2-{[4-(2-phenylethyl)benzyl]oxy}phenyl)pent-4-en-1-yl]benzoic acid]
52.2 nM	COc1ccccc1/C=C/C(CCc1ccc(C(=O)O)cc1)Cc1ccc(C(=O)O)cc1 (racemic) [Example 13, 4-[(4E)-3-(4-Carboxybenzyl)-5-(2-methoxyphenyl)pent-4-en-1-yl]benzoic Acid]
1.1 nM	CCCCCOc1ccccc1/C=C/C(CCc1ccc(C(=O)O)cc1)Cc1ccc(C(=O)O)cc1 (racemic) [Example 17, 4-{(4E)-3-(4-Carboxybenzyl)-5-[2-(pentyloxy)phenyl]pent-4-en-1-yl}benzoic Acid]
19 nM	O=C(O)c1ccc(CCC(/C=C/c2ccccc2OCCCCC(F)(F)F)Cc2ccc(C(=O)O)cc2)cc1 (racemic) [Example 42, 4-[(4E)-3-(4-Carboxybenzyl)-5-{2-[(5,5,5-trifluoropentyl)oxy]phenyl}pent-4-en-1-yl]benzoic Acid]
6 nM	O=C(O)c1ccc(CCC(/C=C/c2ccccc2OCc2ccc(OC(F)(F)F)cc2)Cc2ccc(C(=O)O)cc2)cc1 (stereo not shown) [Example 45]

Same assay, conditions: rabbit saphenous artery rings, contraction induced by phenylephrine

IC50	SMILES
0.54 nM	CC(C)(C)c1ccc(COc2ccccc2/C=C/C(CCc2ccc(C(=O)O)cc2)Cc2ccc(C(=O)O)cc2)cc1 (racemic) [Example 2, 4-[(4E)-5-{2-[(4-tert-Butylbenzyl)oxy]phenyl}-3-(4-carboxybenzyl)pent-4-en-1-yl]benzoic Acid]
4.7 nM	CC(C)(C)c1ccc(COc2ccccc2/C=C/C(CCc2ccc(C(=O)O)cc2)Cc2ccc(C(=O)O)cc2)cc1 (racemic) [Example 3, 4-[(4E)-5-{2-[(4-tert-Butylbenzyl)oxy]phenyl}-3-(4-carboxybenzyl)pent-4-en-1-yl]benzoic Acid]
122 nM	O=C(O)c1ccc(CCC(/C=C/c2ccccc2OCCCCCc2ccccc2)Cc2ccc(C(=O)O)cc2)cc1 (racemic) [Example 6, 4-((4E)-3-(4-Carboxybenzyl)-5-{2-[(5-phenylpentyl)oxy]phenyl}pent-4-en-1-yl)benzoic Acid]

These compounds were tested against T1, Haem-containing sGC (recombinant soluble guanylate cyclase) (Rattus norvegicus, UniProt P20595) (assay: Stimulation of recombinant soluble guanylate cyclase (sGC) in vitro, haem-containing enzyme). Conditions: 0.1 μM DEA/NO, 0.0 μM Example 5.
T1 construct: made in house; host or cells: Sf9 insect cells (baculovirus)
T1 sequence (P20595 1-619): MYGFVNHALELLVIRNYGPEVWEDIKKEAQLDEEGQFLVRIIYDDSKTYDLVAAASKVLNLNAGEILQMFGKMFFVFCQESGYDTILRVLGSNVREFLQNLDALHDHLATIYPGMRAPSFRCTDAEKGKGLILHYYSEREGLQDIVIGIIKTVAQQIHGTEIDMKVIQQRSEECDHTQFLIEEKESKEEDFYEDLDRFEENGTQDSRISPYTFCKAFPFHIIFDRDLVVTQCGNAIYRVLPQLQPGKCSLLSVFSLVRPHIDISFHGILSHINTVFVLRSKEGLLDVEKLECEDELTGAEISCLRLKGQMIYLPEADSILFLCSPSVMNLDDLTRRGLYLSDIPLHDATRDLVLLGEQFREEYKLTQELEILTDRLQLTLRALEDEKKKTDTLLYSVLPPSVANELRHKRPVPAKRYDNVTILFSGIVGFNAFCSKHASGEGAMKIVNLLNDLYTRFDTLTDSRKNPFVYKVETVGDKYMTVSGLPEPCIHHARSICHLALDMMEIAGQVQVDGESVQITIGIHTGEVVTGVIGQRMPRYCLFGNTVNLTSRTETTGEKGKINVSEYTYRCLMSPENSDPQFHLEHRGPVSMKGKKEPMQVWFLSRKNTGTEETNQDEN
T1 sequence (P19686 1-690 partner): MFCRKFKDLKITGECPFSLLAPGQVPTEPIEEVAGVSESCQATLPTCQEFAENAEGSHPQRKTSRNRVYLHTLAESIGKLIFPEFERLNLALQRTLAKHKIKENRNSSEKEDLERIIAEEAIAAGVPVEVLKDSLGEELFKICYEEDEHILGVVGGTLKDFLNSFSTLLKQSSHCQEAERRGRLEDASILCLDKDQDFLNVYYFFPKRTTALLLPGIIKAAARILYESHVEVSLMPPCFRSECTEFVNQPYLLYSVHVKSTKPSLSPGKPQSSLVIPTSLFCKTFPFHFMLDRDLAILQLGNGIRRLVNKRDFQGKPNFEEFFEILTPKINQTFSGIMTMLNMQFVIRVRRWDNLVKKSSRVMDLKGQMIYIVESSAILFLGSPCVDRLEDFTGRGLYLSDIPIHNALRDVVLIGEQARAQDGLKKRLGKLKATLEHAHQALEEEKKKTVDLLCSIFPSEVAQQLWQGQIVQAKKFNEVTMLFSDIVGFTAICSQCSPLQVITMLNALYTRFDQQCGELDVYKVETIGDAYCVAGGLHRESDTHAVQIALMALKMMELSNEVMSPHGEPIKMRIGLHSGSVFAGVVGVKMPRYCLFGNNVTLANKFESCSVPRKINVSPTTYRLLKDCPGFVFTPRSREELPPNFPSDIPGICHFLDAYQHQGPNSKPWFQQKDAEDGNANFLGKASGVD
Assay type: biochemical
Source text: (§1) B-2. Stimulation of Recombinant Soluble Guanylate Cyclase (sGC) In Vitro:
Hoenicka, E. M. Becker, H. Apeler, T. Sirichoke, H. Schroeder, R. Gerzer and J.-P. Stasch, “Purified soluble guanylyl cyclase expressed in a baculovirus/Sf9 system: Stimulation by YC-1, nitric oxide, and carbon oxide”, J. Mol. Med. 77 (1999), 14-23. The haem-free guanylate cyclase is obtained by adding Tween 20 to the sample buffer (0.5% in the final concentration).
(§2) The activation of sGC by a test substance is reported as n-fold stimulation of the basal activity.

SMILES	Stimulation (n-fold) Haem-containing sGC by DEA/NO alone
CCN(CC)[N+]([O-])=NO [DEA/NO, 2-(N,N-diethylamino)diazenolate 2-oxide, reference compound]	78.7 n-fold

Same assay, conditions: 10 μM ODQ, 0.0 μM Example 5

Stimulation (n-fold) Haem-containing sGC with ODQ alone	SMILES
38.8 n-fold	O=c1onc2cnc3ccccc3n12 [ODQ, 1H-1,2,4-oxadiazole-(4,3a)-quinoxalin-1-one, reference compound]

These compounds were tested against T2, Haem-free sGC (recombinant soluble guanylate cyclase) (Rattus norvegicus, UniProt P20595) (assay: Stimulation of recombinant soluble guanylate cyclase (sGC) in vitro, haem-free enzyme). Conditions: 10 μM ODQ, 0.0 μM Example 5.
T2 construct: made in house; host or cells: Sf9 insect cells (baculovirus)
T2 sequence (P20595 1-619): T1 sequence (P20595 1-619)
T2 sequence (P19686 1-690 partner): T1 sequence (P19686 1-690 partner)
Assay type: biochemical
Description: as §1
Investigations on the stimulation of recombinant soluble guanylate cyclase (sGC) by the compounds according to the invention with and without sodium nitroprusside, and with and without the haem-dependent sGC inhibitor 1H-1,2,4-oxadiazole-(4,3a)-quinoxalin-1-one (ODQ) are carried out by the method described in detail in the following reference: M. Hoenicka, E. M. Becker, H. Apeler, T. Sirichoke, H. Schroeder, R. Gerzer and J.-P. Stasch, “Purified soluble guanylyl cyclase expressed in a baculovirus/Sf9 system: Stimulation by YC-1, nitric oxide, and […]”, J. Mol. Med. 77 (1999), 14-23. The haem-free guanylate cyclase is obtained by adding Tween 20 to the sample buffer (0.5% in the final concentration).
as §2

Stimulation (n-fold) Haem-free sGC with ODQ alone	SMILES
2.0 n-fold	O=c1onc2cnc3ccccc3n12 [ODQ, 1H-1,2,4-oxadiazole-(4,3a)-quinoxalin-1-one, reference compound]

— patent publication US8609727B2, “Dicarboxylic acid derivatives and their use” (Bayer Intellectual Property GmbH, priority 2005, dated 2013)
